# Experimental data: patent US20240140991A1, “ANTIBIOTIC NATURAL PRODUCT ANALOGUES” (THE QUEEN'S UNIVERSITY OF BELFAST, priority 2021, published 2024)
# Positions of bridges follow the written chain, without caps; N, C: chain ends. Non-standard residues stand in square brackets, D forms with d. Residues, ends and D or L forms follow the SMILES beside them. ξ: configuration not given here. *: point of attachment. Octanoyl(7-Me) = CC(C)CCCCCC(=O)*; Hexanoyl(4ξ-Me) = CCC(C)CCC(=O)*; X2 = CC(=O)[C@H](CC(N)=O)C(=O)*; Lauroyl = CCCCCCCCCCCC(=O)*; dOrn = NCCC[C@@H](N)C(=O)O; Octanoyl = CCCCCCCC(=O)*; Orn = NCCC[C@H](N)C(=O)O; Dap = NC[C@H](N)C(=O)O; Hexanoyl = CCCCCC(=O)*; Alloc = C=CCOC(=O)*; OAll = C=CCO*
# System: Escherichia coli ATCC 25922
# Format: cell-based
# Conditions: ATCC 25922
# In short: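 Broth microdilution in MHB per CLSI; inoculum 2×10^5 CFU mL^−1 from log-phase TSB cultures at OD600 0.5. Plates incubated 16 hours at 37° C with shaking at 220 rpm. MIC is the lowest concentration preventing visible growth.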
row,Minimum inhibitory concentration (MIC) [µg/mL],SMILES
1,4,CC[C@H](C)[C@H](NC(=O)[C@H](CO)NC(=O)[C@H](Cc1c[nH]c2ccccc12)NC(=O)[C@@H](CCCN)NC(=O)CNC(=O)[C@H](CCCN)NC(=O)[C@@H](CCCN)NC(=O)[C@@H](Cc1c[nH]c2ccccc12)NC(=O)[C@@H](Cc1ccc(O)cc1)NC(=O)[C@@H](CO)NC(=O)CCCCCC(C)C)C(=O)N[C@@H](CC(N)=O)C(=O)NCC(N)=O [ΔG13-Ser9-isoC9] ({Octanoyl(7-Me)}-[dS][dY][dW][dOrn][Orn]G[dOrn]WSING-NH2)
2,2 to 4,CC[C@H](C)[C@H](NC(=O)[C@H](CC(C)C)NC(=O)[C@H](Cc1c[nH]c2ccccc12)NC(=O)[C@@H](CCCN)NC(=O)CNC(=O)[C@H](CCCN)NC(=O)[C@@H](CCCN)NC(=O)[C@@H](Cc1c[nH]c2ccccc12)NC(=O)[C@@H](Cc1ccc(O)cc1)NC(=O)[C@@H](CO)NC(=O)CCCCCC(C)C)C(=O)N[C@@H](CC(N)=O)C(=O)NCC(=O)NCC(N)=O [Leu9-CONH2] ({Octanoyl(7-Me)}-[dS][dY][dW][dOrn][Orn]G[dOrn]WLINGG-NH2)
3,1,CCC(C)CCC(=O)N[C@H](CO)C(=O)N[C@H](Cc1ccc(O)cc1)C(=O)N[C@H](Cc1c[nH]c2ccccc12)C(=O)N[C@H](CCCN)C(=O)N[C@@H](CCCN)C(=O)NCC(=O)N[C@H](CCCN)C(=O)N[C@@H](Cc1c[nH]c2ccccc12)C(=O)N[C@@H]1C(=O)N[C@@H]([C@@H](C)CC)C(=O)NCC(=O)N[C@H](CO)C(=O)N[C@@H](C)C(=O)O[C@@H]1C (stereo partly shown) [Compound R6] ({Hexanoyl(4ξ-Me)}-[dS][dY][dW][dOrn][Orn]G[dOrn]WTIG[dS]A; ester 9-C; N-terminus assumed)
4,16,"CC(C)CCCCCC(=O)N[C@H](CO)C(=O)N[C@H](Cc1ccc(O)cc1)C(=O)N[C@H](Cc1c[nH]c2ccccc12)C(=O)N[C@H](CCCN)C(=O)N[C@@H](CCCN)C(=O)NCC(=O)N[C@H](CCCN)C(=O)N[C@@H](Cc1c[nH]c2ccccc12)C(N)=O [ΔT9-G13, FA-sywoOGoW-CONH2] ({Octanoyl(7-Me)}-[dS][dY][dW][dOrn][Orn]G[dOrn]W-NH2)"
5,8,C=CCOC(=O)CC[C@H](NC(=O)[C@H](Cc1c[nH]c2ccccc12)NC(=O)[C@@H](CCCN)NC(=O)CNC(=O)[C@H](CCCN)NC(=O)[C@@H](CCCN)NC(=O)[C@@H](Cc1c[nH]c2ccccc12)NC(=O)[C@@H](Cc1ccc(O)cc1)NC(=O)[C@@H](CO)NC(=O)CCCCCC(C)C)C(=O)N[C@H](C(=O)N[C@@H](CC(N)=O)C(=O)NCC(=O)NCC(N)=O)[C@@H](C)CC [Glu(OAll)9-CONH2] ({Octanoyl(7-Me)}-[dS][dY][dW][dOrn][Orn]G[dOrn]WE(OAll)INGG-NH2)
6,4,"CC[C@H](C)[C@H](NC(=O)[C@@H](NC(=O)[C@H](Cc1c[nH]c2ccccc12)NC(=O)[C@@H](CCCN)NC(=O)CNC(=O)[C@H](CCCN)NC(=O)[C@@H](CCCN)NC(=O)[C@@H](Cc1c[nH]c2ccccc12)NC(=O)[C@@H](Cc1ccc(O)cc1)NC(=O)[C@@H](CO)NC(=O)CCCCCC(C)C)[C@@H](C)O)C(=O)N[C@@H](CC(N)=O)C(N)=O [ΔG12-G13, FA-sywoOGoWTIN-CONH2] ({Octanoyl(7-Me)}-[dS][dY][dW][dOrn][Orn]G[dOrn]WTIN-NH2)"
7,2,CCC(C)CCC(=O)N[C@H](CO)C(=O)N[C@H](Cc1ccc(O)cc1)C(=O)N[C@H](Cc1c[nH]c2ccccc12)C(=O)N[C@H](CCCN)C(=O)N[C@@H](CCCN)C(=O)NCC(=O)N[C@H](CCCN)C(=O)N[C@@H](Cc1c[nH]c2ccccc12)C(=O)N[C@@H]1C(=O)N[C@@H]([C@@H](C)CC)C(=O)NCC(=O)N[C@H](CO)C(=O)NCC(=O)O[C@@H]1C (stereo partly shown) [Compound R2] ({Hexanoyl(4ξ-Me)}-[dS][dY][dW][dOrn][Orn]G[dOrn]WTIG[dS]G; ester 9-C; N-terminus assumed)
8,2,C=CCOC(=O)NC[C@H](NC(=O)[C@H](Cc1c[nH]c2ccccc12)NC(=O)[C@@H](CCCN)NC(=O)CNC(=O)[C@H](CCCN)NC(=O)[C@@H](CCCN)NC(=O)[C@@H](Cc1c[nH]c2ccccc12)NC(=O)[C@@H](Cc1ccc(O)cc1)NC(=O)[C@@H](CO)NC(=O)CCCCCC(C)C)C(=O)N[C@H](C(=O)N[C@@H](CC(N)=O)C(=O)NCC(=O)NCC(N)=O)[C@@H](C)CC [Dap(Alloc)9-CONH2] ({Octanoyl(7-Me)}-[dS][dY][dW][dOrn][Orn]G[dOrn]W[Dap](Alloc)INGG-NH2)
9,4,CC[C@H](C)[C@H](NC(=O)[C@H](Cc1c[nH]c2ccccc12)NC(=O)[C@H](Cc1c[nH]c2ccccc12)NC(=O)[C@@H](CCCN)NC(=O)CNC(=O)[C@H](CCCN)NC(=O)[C@@H](CCCN)NC(=O)[C@@H](Cc1c[nH]c2ccccc12)NC(=O)[C@@H](Cc1ccc(O)cc1)NC(=O)[C@@H](CO)NC(=O)CCCCCC(C)C)C(=O)N[C@@H](CC(N)=O)C(=O)NCC(=O)NCC(N)=O [Trp9-CONH2] ({Octanoyl(7-Me)}-[dS][dY][dW][dOrn][Orn]G[dOrn]WWINGG-NH2)
10,2,CC[C@H](C)[C@H](NC(=O)[C@@H](NC(=O)[C@H](Cc1c[nH]c2ccccc12)NC(=O)[C@@H](CCCN)NC(=O)CNC(=O)[C@H](CCCN)NC(=O)[C@@H](CCCN)NC(=O)[C@@H](Cc1c[nH]c2ccccc12)NC(=O)[C@@H](Cc1ccc(O)cc1)NC(=O)[C@@H](CO)NC(=O)CCCCCC(C)C)[C@@H](C)O)C(=O)N[C@@H](CC(N)=O)C(=O)NCC(=O)NCC(N)=O [Thr (linear laterocidine)] ({Octanoyl(7-Me)}-[dS][dY][dW][dOrn][Orn]G[dOrn]WTINGG-NH2; N-terminus and C-terminus assumed)

# System: E. coli
# Format: cell-based
# Conditions: not given
# Procedure: Minimum inhibitory concentration (MIC) was determined by broth microdilution according to CLSI guidelines. Blood agar plates were inoculated with glycerol stocks of Escherichia coli ATCC 25922, E. coli ATCC 25922 MCR-1, E. coli MCR-1 (clinical isolate from Utrecht Medical Center, NL), E. coli EQAS MCR-2 (clinical isolate from Wageningen University and Research, NL), Kiebsielia pneumoniae ATCC 11228, K. pneumoniae ATCC 13883, K. pneumonia 2048 (clinical isolate from Vrije Universiteit Amsterdam Medical Center, NL), K. pneumonia JS-123 (clinical isolate from Utrecht Medical Center, NL), Acinetobacter baumannii ATCC 17961, A. baumannil ATCC 17978, A. baumannii 2018-006 (clinical isolate from Rijksinstituut voor Volksgezondheid en Milieu, NL), A. baumannii MDR (clinical isolate from Vrije Universiteit Amsterdam Medical Center, NL), Pseudomonas aeruginosa ATCC 27853, P. aeruginosa PAO1, P. aeruginosa NRZ-03961 (Reference strain from Das Nationale Referenzzentrum für gramnegative Krankenhauserreger, DE), P. aeruginosa M-120 (clinical isolate from Leiden University Medical Center, NL) and Staphylococcus aureus USA300 (clinical isolate from Texas Children's Hospitalm, USA). E. coli 25922 MCR1 was grown on LB agar supplemented with kanamycin. The inoculated agar plates were then incubated for 16 hours at 37° C. Individually grown colonies were subsequently used to inoculate 3 mL aliquots of TSB that were then incubated at 37° C. with shaking at 220 rpm. In parallel, the compounds to be assessed were serially diluted with Mueller-Hinton broth (MHB) in polypropylene 96-well plates (50 μL in each well). Once the OD600 of the bacterial suspensions reached 0.5, the bacteria were diluted with MHB (final concentration 2×10^5 CFU mL^−1) and added to the microplates containing the test compounds (50 μL to each well, final volume: 100 μL). The well-plates were sealed with an adhesive membrane and after 16 hours of incubation at 37° C. with shaking at 220 rpm the wells were visually inspected for bacterial growth. MIC values were defined as the lowest concentration of the compound that prevented visible growth of bacteria.
# MIC values were determined for the lipid analogues of brevicidine.
# MIC values were determined for the position 9 analogues of linear brevicidine.
row,E. coli MIC [µg/mL],SMILES
1,50,CC[C@H](C)[C@@H]1NC(=O)[C@@H](NC(=O)[C@H](Cc2c[nH]c3ccccc23)NC(=O)[C@@H](CCCN)NC(=O)CNC(=O)[C@H](CCCN)NC(=O)[C@@H](CCCN)NC(=O)[C@@H](Cc2c[nH]c3ccccc23)NC(=O)[C@@H](Cc2ccc(O)cc2)NC(=O)[C@@H](CC(N)=O)C(C)=O)[C@@H](C)OC(=O)[C@H](CO)NC(=O)CNC1=O [Brev-C2] (X2-[dY][dW][dOrn][Orn]G[dOrn]WTIGS; ester 8-C)
2,25,CCCCCC(=O)N[C@H](CC(N)=O)C(=O)N[C@H](Cc1ccc(O)cc1)C(=O)N[C@H](Cc1c[nH]c2ccccc12)C(=O)N[C@H](CCCN)C(=O)N[C@@H](CCCN)C(=O)NCC(=O)N[C@H](CCCN)C(=O)N[C@@H](Cc1c[nH]c2ccccc12)C(=O)N[C@@H]1C(=O)N[C@@H]([C@@H](C)CC)C(=O)NCC(=O)N[C@@H](CO)C(=O)O[C@@H]1C [Brev-C6] (Hexanoyl-[dN][dY][dW][dOrn][Orn]G[dOrn]WTIGS; ester 9-C)
3,3.12,CCCCCCCCCCCC(=O)N[C@H](CC(N)=O)C(=O)N[C@H](Cc1ccc(O)cc1)C(=O)N[C@H](Cc1c[nH]c2ccccc12)C(=O)N[C@H](CCCN)C(=O)N[C@@H](CCCN)C(=O)NCC(=O)N[C@H](CCCN)C(=O)N[C@@H](Cc1c[nH]c2ccccc12)C(=O)N[C@@H]1C(=O)N[C@@H]([C@@H](C)CC)C(=O)NCC(=O)N[C@@H](CO)C(=O)O[C@@H]1C [Brev-C12] (Lauroyl-[dN][dY][dW][dOrn][Orn]G[dOrn]WTIGS; ester 9-C)
4,0.78,CCC(C)CCC(=O)N[C@H](CC(N)=O)C(=O)N[C@H](Cc1ccc(O)cc1)C(=O)N[C@H](Cc1c[nH]c2ccccc12)C(=O)N[C@H](CCCN)C(=O)N[C@@H](CCCN)C(=O)NCC(=O)N[C@H](CCCN)C(=O)N[C@@H](Cc1c[nH]c2ccccc12)C(=O)N[C@@H](Cc1c[nH]c2ccccc12)C(=O)N[C@H](C(=O)NCC(N)=O)[C@@H](C)CC (stereo partly shown) [Und(9-Trp)-NH2] ({Hexanoyl(4ξ-Me)}-[dN][dY][dW][dOrn][Orn]G[dOrn]WWIG-NH2)
5,25,CCCCCCCC(=O)N[C@H](CC(N)=O)C(=O)N[C@H](Cc1ccc(O)cc1)C(=O)N[C@H](Cc1c[nH]c2ccccc12)C(=O)N[C@H](CCCN)C(=O)N[C@@H](CCCN)C(=O)NCC(=O)N[C@H](CCCN)C(=O)N[C@@H](Cc1c[nH]c2ccccc12)C(=O)N[C@@H]1C(=O)N[C@@H]([C@@H](C)CC)C(=O)NCC(=O)N[C@@H](CO)C(=O)O[C@@H]1C [Brev-C8] (Octanoyl-[dN][dY][dW][dOrn][Orn]G[dOrn]WTIGS; ester 9-C)
6,50,CC[C@H](C)[C@@H]1NC(=O)[C@@H](NC(=O)[C@H](Cc2c[nH]c3ccccc23)NC(=O)[C@@H](CCCN)NC(=O)CNC(=O)[C@H](CCCN)NC(=O)[C@@H](CCCN)NC(=O)[C@@H](Cc2c[nH]c3ccccc23)NC(=O)[C@@H](Cc2ccc(O)cc2)NC(=O)[C@H](N)CC(N)=O)[C@@H](C)OC(=O)[C@H](CO)NC(=O)CNC1=O [Brev-NH2] (H-[dN][dY][dW][dOrn][Orn]G[dOrn]WTIGS; ester 9-C)
